Like-named read-outs stand apart in the source and are kept apart here.
How the values were obtained:
[1] = test system: SARS-CoV-2 infected Huh 7.5.1 cells; conditions: for EC50: read-out: EC50 Huh 7.5.1
Huh 7.5.1 cells = conditions: read-out: CC50 Huh 7.5.1
3CL^pro [2] = biological target: T1, 3CL^pro (Severe acute respiratory syndrome coronavirus 2, UniProt P0DTD1); conditions: for IC50: read-out: IC50 against 3CL^pro
[3] = test system: SARS-CoV-2 infected Vero E6 cells
[4] = Axial ligand exchange with DMSO, DMF or water followed by 1H-NMR; format: physicochemical
[5] = biological target: dipeptidyl peptidase-4 (DPP4) (Homo sapiens, UniProt P27487); assay: DPP4 enzymatic assay; format: biochemical; conditions: read-out: IC50 against DPP4; three independent experiments
dipeptidyl peptidase-4 (DPP4), sequence (P27487 whole entry): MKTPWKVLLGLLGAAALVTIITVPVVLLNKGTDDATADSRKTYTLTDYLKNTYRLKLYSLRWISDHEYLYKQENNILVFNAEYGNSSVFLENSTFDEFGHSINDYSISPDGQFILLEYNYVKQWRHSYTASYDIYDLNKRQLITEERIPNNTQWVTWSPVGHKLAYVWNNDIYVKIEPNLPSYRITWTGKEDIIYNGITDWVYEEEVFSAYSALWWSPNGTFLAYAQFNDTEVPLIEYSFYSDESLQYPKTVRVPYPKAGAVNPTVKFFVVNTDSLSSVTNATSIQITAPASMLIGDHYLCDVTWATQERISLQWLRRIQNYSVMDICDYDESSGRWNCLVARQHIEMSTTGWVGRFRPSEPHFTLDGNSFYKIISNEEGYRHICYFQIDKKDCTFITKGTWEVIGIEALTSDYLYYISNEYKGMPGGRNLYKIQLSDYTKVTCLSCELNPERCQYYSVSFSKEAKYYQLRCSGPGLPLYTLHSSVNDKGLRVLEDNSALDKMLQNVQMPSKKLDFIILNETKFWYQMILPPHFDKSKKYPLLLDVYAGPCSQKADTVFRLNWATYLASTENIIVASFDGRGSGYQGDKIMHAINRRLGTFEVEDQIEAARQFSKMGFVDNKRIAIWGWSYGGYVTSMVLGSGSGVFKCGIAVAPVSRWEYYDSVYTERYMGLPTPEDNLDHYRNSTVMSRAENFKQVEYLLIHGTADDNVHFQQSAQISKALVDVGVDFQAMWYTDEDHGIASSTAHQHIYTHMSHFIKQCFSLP

beta-secretase 1 (BACE1) = beta-secretase 1 (BACE1) (Homo sapiens, UniProt P56817); format: biochemical; conditions: read-out: IC50 against BACE1; three independent experiments
beta-secretase 1 (BACE1), sequence (P56817 46-501): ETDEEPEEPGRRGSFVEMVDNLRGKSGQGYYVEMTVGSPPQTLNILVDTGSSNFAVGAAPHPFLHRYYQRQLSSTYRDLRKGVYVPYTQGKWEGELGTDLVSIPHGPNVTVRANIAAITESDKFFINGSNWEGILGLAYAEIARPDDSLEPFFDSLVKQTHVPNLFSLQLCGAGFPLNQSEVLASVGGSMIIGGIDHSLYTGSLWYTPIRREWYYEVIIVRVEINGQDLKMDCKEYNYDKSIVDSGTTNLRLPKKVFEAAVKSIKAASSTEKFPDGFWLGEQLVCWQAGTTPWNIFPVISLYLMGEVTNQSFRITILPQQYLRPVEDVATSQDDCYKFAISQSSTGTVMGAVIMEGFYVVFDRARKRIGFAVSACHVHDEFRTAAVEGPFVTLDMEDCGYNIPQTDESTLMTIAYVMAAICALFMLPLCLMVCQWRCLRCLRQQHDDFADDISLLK

3CL^pro [6] = biological target: T1, 3CL^pro
Furin = Furin (Homo sapiens, UniProt P09958); format: biochemical; conditions: read-out: IC50 against Furin; three independent experiments
Furin, sequence (P09958 108-794): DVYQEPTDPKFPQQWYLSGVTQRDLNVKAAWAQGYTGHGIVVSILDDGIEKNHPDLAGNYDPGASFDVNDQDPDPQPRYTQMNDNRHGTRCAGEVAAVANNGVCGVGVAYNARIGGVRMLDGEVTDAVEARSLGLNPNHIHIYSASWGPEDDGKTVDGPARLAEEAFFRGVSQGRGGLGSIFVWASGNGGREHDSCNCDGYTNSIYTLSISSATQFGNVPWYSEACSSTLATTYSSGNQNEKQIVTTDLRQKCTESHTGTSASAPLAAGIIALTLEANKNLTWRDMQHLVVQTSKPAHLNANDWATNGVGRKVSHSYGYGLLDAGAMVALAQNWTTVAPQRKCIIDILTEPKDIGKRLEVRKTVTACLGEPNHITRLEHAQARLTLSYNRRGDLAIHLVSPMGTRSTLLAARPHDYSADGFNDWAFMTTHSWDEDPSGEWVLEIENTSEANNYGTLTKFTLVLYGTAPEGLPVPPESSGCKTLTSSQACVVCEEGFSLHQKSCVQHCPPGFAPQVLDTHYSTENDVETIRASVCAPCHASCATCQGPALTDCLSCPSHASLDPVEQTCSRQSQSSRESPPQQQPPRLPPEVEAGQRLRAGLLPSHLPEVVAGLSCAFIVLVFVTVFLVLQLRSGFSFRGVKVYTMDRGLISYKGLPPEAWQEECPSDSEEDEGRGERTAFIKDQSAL

Aqueous solubility tests = format: physicochemical; conditions: 0.4–0.1% DMSO or DMF in phosphate-buffered saline
cathepsin B = cathepsin B (Homo sapiens, UniProt P07858); assay: Cathepsin B enzymatic assay; format: biochemical; conditions: read-out: IC50 against Cathepsin B; three independent experiments
[7] = biological target: SARS-CoV-2 Papain-like protease (PL^pro) (Severe acute respiratory syndrome coronavirus 2, UniProt P0DTD1); format: biochemical; conditions: read-out: IC50 against PL^pro
3CL^pro [8] = biological target: T1, 3CL^pro; remark: listed apart in the source
cathepsin L = cathepsin L (Homo sapiens, UniProt P07711); assay: Cathepsin L enzymatic assay; format: biochemical; conditions: read-out: IC50 against Cathepsin L; three independent experiments
cathepsin L, sequence (P07711 114-333): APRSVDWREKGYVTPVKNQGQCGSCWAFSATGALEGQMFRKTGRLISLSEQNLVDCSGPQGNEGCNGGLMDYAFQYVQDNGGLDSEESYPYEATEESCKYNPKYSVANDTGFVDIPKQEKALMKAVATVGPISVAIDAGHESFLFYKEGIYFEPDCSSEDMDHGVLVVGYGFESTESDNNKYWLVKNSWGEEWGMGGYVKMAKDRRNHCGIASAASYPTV

[9] = biological target: transmembrane serine protease 2 (TMPRSS2) (Homo sapiens, UniProt O15393); assay: TMPRSS2 enzymatic assay; format: biochemical; conditions: read-out: IC50 against TMPRSS2; three independent experiments
transmembrane serine protease 2 (TMPRSS2), sequence (O15393 whole entry): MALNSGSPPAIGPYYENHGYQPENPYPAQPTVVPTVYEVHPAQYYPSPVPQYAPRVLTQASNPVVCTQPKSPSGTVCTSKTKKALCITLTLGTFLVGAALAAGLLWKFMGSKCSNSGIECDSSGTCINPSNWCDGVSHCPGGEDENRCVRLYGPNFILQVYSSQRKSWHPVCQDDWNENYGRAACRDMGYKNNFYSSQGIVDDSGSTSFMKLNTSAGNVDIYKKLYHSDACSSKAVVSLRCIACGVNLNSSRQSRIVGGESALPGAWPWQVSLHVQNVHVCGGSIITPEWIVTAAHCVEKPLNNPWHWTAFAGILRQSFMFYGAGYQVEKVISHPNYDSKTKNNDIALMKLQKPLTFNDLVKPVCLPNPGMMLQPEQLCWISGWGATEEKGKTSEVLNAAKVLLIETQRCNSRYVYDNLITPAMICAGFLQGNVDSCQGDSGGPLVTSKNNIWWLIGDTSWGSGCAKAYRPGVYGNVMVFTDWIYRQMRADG

Vero E6 cells = conditions: read-out: CC50 Vero E6
[10] = test system: SARS-CoV-2 infected Vero E6 cells; format: cell-based; conditions: immunofluorescence microscopy
in vitro [11] = conditions: African green monkey
in vitro [12] = conditions: human
[13] = test system: SARS-CoV-2 infected Huh 7.5.1 cells; assay: microbe, parasite or virus in culture; conditions: Severe acute respiratory syndrome coronavirus 2, Huh-7.5.1, 48 h, read-out: EC50 Huh 7.5.1

With CS(C)=O.O=C([O-])c1ccccn1.[C-]#[O+].[C-]#[O+].[C-]#[O+].[Re+] [1DMSO, [Re(pic)(CO)3(DMSO)]] the “SI Huh 7.5.1 (CC50/EC50; therapeutic index)” value [1] was 9, the EC50 [1] was 1.8 ± 0.5 µM and the CC50 (Huh 7.5.1 cells) was 16.5 ± 1.3 µM. For the same molecule, the “effect of extending the preincubation time on 3CL^pro inhibition” value (3CL^pro [2]) was “strongly enhance the inhibitory activity over time”, the IC50 (3CL^pro [2]) was 16.5 ± 3.4 µM and the “SI Vero E6 (CC50/EC50; therapeutic index)” value [3] was >9. The “aqueous stability of the DMSO adduct” value ([4]; 2 : 8 DMSO-d6 : H2O, up to 6 h) was “the majority of the compound remained as the DMSO adduct even after 6 h”.
With O.O=C([O-])c1ccccn1.[C-]#[O+].[C-]#[O+].[C-]#[O+].[Re+] [Compound 1, [Re(pic)(CO)3(H2O)]] the IC50 [5] was > 100 µM, the IC50 (beta-secretase 1 (BACE1)) was 83 ± 6 µM and the IC50 (3CL^pro [2]) was 9.1 ± 1.8 µM. The “adduct formation with 3CL^pro (deconvoluted mass spectrum)” value (3CL^pro [6]) was “a single attached metal complex”, the “adduct formation with the GC376-3CL^pro adduct (binding competition)” value (3CL^pro [6]) was “did not show the formation of new products” and the IC50 (Furin) was > 100 µM. For the same molecule, the “precipitate or aggregate formation by DLS” value (Aqueous solubility tests) was “No particle formation or aggregation was observed”, the IC50 (cathepsin B) was > 100 µM and the IC50 [7] was > 100 µM. For the same molecule, the “Re content bound to protein” value (3CL^pro [8]) was 0.7 ± 0.2 equivalents of Re per 3CL^pro, the IC50 (cathepsin L) was 53 ± 7 µM and the IC50 [9] was > 100 µM. The “time to full exchange of the axial ligand in DMF-d7” value [4] was ≤ 6 h and the “aqua ligand exchange in DMSO-d6” value ([4]; within 5 min) was “rapid exchange of the aqua ligand with DMSO”.
Work on O=C([O-])c1ncccc1F.[C-]#[O+].[C-]#[O+].[C-]#[O+].[Re+] [Compound 2] yielded an IC50 (3CL^pro [2]) of 19 ± 3.7 µM.
In the case of O=C([O-])c1cc(O)ccn1.[C-]#[O+].[C-]#[O+].[C-]#[O+].[Re+] [Compound 18], the IC50 [5] is reported as > 100 µM, the IC50 (beta-secretase 1 (BACE1)) is reported as 76 ± 8 µM and the IC50 (3CL^pro [2]) is reported as 4.6 ± 0.5 µM. The IC50 (Furin) was > 100 µM, the IC50 (cathepsin B) was > 100 µM and the IC50 [7] was > 100 µM. The IC50 (cathepsin L) was 67 ± 9 µM and the IC50 [9] was > 100 µM.
With Nc1ccnc(C(=O)[O-])c1.[C-]#[O+].[C-]#[O+].[C-]#[O+].[Re+] [Compound 20] the IC50 (3CL^pro [2]) was 8.4 ± 2.2 µM.
For O=C([O-])c1cccc(O)n1.[C-]#[O+].[C-]#[O+].[C-]#[O+].[Re+] [Compound 38], the IC50 (3CL^pro [2]) was 8.8 ± 3.4 µM.
COc1cccc(C(=O)[O-])n1.[C-]#[O+].[C-]#[O+].[C-]#[O+].[Re+] [Compound 39] showed an IC50 (3CL^pro [2]) of 8.5 ± 1.9 µM.
For Nc1cccc(C(=O)[O-])n1.[C-]#[O+].[C-]#[O+].[C-]#[O+].[Re+] [Compound 40], the IC50 (3CL^pro [2]) was 10.9 ± 3.1 µM.
In the case of CN1CCN(C(=O)N[C@@H](Cc2ccccc2)C(=O)N[C@H](/C=C/S(=O)(=O)c2ccccc2)CCc2ccccc2)CC1 [K777], the EC50 [1] is reported as > 2 µM, the CC50 (Huh 7.5.1 cells) is reported as > 2 µM and the CC50 (Vero E6 cells) is reported as > 2 µM. The “SI Vero E6 (CC50/EC50; therapeutic index)” value ([3]; Vero E6 cells) was >222, the EC50 ([3]; read-out: EC50 Vero E6) was 0.009 ± 0.002 µM and the “concentration protecting cells from viral infection” value [10] was ≤ 125 nM.
For CCC(CC)COC(=O)[C@H](C)N[P@](=O)(OC[C@H]1O[C@@](C#N)(c2ccc3c(N)ncnn23)[C@H](O)[C@@H]1O)Oc1ccccc1 [Remdesivir], the CC50 (in vitro [11]) was > 20 µM, the “SI Huh 7.5.1 (CC50/EC50; therapeutic index)” value ([1]; Huh 7.5.1 cells) was >500 and the CC50 (in vitro [12]) was > 20 µM. For the same molecule, the “SI Vero E6 (CC50/EC50; therapeutic index)” value ([3]; Vero E6 cells) was >4 and the EC50 [13] was < 0.04 µM.
